Measurements as given in PubChem BioAssay (NCI).
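Assay format: 96-well plates, 48-hour exposure. GI50: concentration for 50% inhibition of growth. TGI: concentration producing complete growth inhibition.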

Experiments:
Test in all cases: NCI-60 cell line screen, 48 h
A498 renal = test system: A498 renal
MOLT-4 leukemia = test system: MOLT-4 leukemia
NCI-H23 lung = test system: NCI-H23 lung
OVCAR-5 ovarian = test system: OVCAR-5 ovarian
RXF 393 renal = test system: RXF 393 renal
SF-539 CNS = test system: SF-539 CNS
U251 CNS = test system: U251 CNS
HT29 colon = test system: HT29 colon
M14 melanoma = test system: M14 melanoma
UO-31 renal = test system: UO-31 renal

Q: Which TGI (A498 renal) does the source give for CC1OC(OC2CCC3(C=O)C4CCC5(C)C(C6=CC(=O)OC6)CCC5(O)C4CCC3(O)C2)C(O)C(O)C1O (stereo not drawn) here?
A: The TGI was 0.000154 µM.

Q: And the TGI (MOLT-4 leukemia)?
A: Its TGI is 1.6e-05 µM.

Q: And the TGI (NCI-H23 lung)?
A: Its TGI is 4.11e-05 µM.

Q: What about the GI50 (OVCAR-5 ovarian) of the same compound?
A: Its GI50 is 0.0112 µM.

Q: What about the TGI (RXF 393 renal) of the same compound?
A: Its TGI is 8.12e-05 µM.

Q: And the TGI (SF-539 CNS)?
A: The TGI was 5.65e-05 µM.

Q: What about the TGI (U251 CNS) of the same compound?
A: The TGI was 0.000156 µM.

Q: Which results are given for CCN(CC)CCN(C(=O)C(C)(C)C)c1ccccc1N?
A: TGI (HT29 colon): > 100 µM; TGI (M14 melanoma): > 100 µM; TGI (MOLT-4 leukemia): > 100 µM; TGI (NCI-H23 lung): > 100 µM; TGI (OVCAR-5 ovarian): > 100 µM; TGI (RXF 393 renal): > 100 µM; TGI (SF-539 CNS): > 100 µM; TGI (U251 CNS): > 100 µM; TGI (UO-31 renal): > 100 µM

Q: With COc1ccc(CCN2CCc3c(C)c(C#N)c4nc5ccccc5n4c32)cc1OC as the compound, how does the TGI (A498 renal) read?
A: Its TGI is > 100 µM.

Q: What about the TGI (HT29 colon) of the same compound?
A: Its TGI is > 100 µM.

Q: What about the TGI (M14 melanoma) of the same compound?
A: Its TGI is > 100 µM.

Q: And the TGI (NCI-H23 lung)?
A: Its TGI is > 100 µM.

Q: And the TGI (OVCAR-5 ovarian)?
A: The TGI was > 100 µM.

Q: What about the TGI (RXF 393 renal) of the same compound?
A: Its TGI is > 100 µM.

Q: And the TGI (SF-539 CNS)?
A: The TGI was > 100 µM.

Q: What about the TGI (U251 CNS) of the same compound?
A: The TGI was > 100 µM.

Q: And the TGI (UO-31 renal)?
A: Its TGI is > 100 µM.

Q: Which TGI (HT29 colon) does the source give for COc1cc2cc3c4c(cc(OC)c(OC)c4c2cc1OC)CCN3C(=O)CCC(=O)NCCCN(C)C here?
A: Its TGI is 51.7 µM.

Q: What about the TGI (M14 melanoma) of the same compound?
A: The TGI was 32 µM.

Q: And the TGI (MOLT-4 leukemia)?
A: Its TGI is > 100 µM.

Q: And the TGI (NCI-H23 lung)?
A: Its TGI is > 100 µM.

Q: What about the TGI (RXF 393 renal) of the same compound?
A: The TGI was > 100 µM.

Q: What about the TGI (SF-539 CNS) of the same compound?
A: Its TGI is 59.3 µM.

Q: And the TGI (U251 CNS)?
A: Its TGI is > 100 µM.

Q: What about the TGI (UO-31 renal) of the same compound?
A: Its TGI is > 100 µM.

Q: What does the source list for O=C(Nc1cccc(NC(=O)c2cc(=O)c3ccccc3o2)n1)c1cc(=O)c2ccccc2o1?
A: TGI (A498 renal): > 100 µM; TGI (M14 melanoma): > 100 µM; TGI (MOLT-4 leukemia): > 100 µM; TGI (NCI-H23 lung): > 100 µM; TGI (OVCAR-5 ovarian): > 100 µM; TGI (RXF 393 renal): > 100 µM; TGI (SF-539 CNS): > 100 µM; TGI (U251 CNS): > 100 µM; TGI (UO-31 renal): 85.6 µM

Q: How did the TGI (HT29 colon) turn out when COc1ccc2nc3ccccc3c(NCCCCN(C)CCCl)c2c1 was run?
A: The TGI was 1.46 µM.

Q: And the TGI (M14 melanoma)?
A: The TGI was 0.314 µM.

Q: And the TGI (NCI-H23 lung)?
A: Its TGI is > 100 µM.

Q: What about the TGI (OVCAR-5 ovarian) of the same compound?
A: Its TGI is 1.08 µM.

Q: What about the TGI (RXF 393 renal) of the same compound?
A: Its TGI is 0.362 µM.

Q: What about the TGI (SF-539 CNS) of the same compound?
A: Its TGI is 0.284 µM.

Q: What about the TGI (U251 CNS) of the same compound?
A: Its TGI is 0.251 µM.

Q: And the TGI (UO-31 renal)?
A: Its TGI is 1.22 µM.

Q: With COc1cc2c(c(OC)c1OC)-c1ccc(SC)c(=O)cc1[C@@H](NC(=O)c1ccc(Cl)cc1)CC2 as the compound, how does the TGI (A498 renal) read?
A: The TGI was < 0.01 µM.

Q: What about the TGI (HT29 colon) of the same compound?
A: Its TGI is 11.2 µM.

Q: And the TGI (M14 melanoma)?
A: The TGI was 2.3 µM.

Q: What about the TGI (MOLT-4 leukemia) of the same compound?
A: Its TGI is > 100 µM.

Q: What about the TGI (RXF 393 renal) of the same compound?
A: Its TGI is 19.4 µM.

Q: What about the TGI (SF-539 CNS) of the same compound?
A: The TGI was < 0.01 µM.

Q: What about the TGI (U251 CNS) of the same compound?
A: Its TGI is < 0.01 µM.

Q: What about the TGI (UO-31 renal) of the same compound?
A: The TGI was 62.6 µM.

Q: For COC1(OC)c2no[n+]([O-])c2C(OC)(OC)c2c1no[n+]2[O-], which TGI (A498 renal) is on record?
A: The TGI was 34.6 µM.

Q: What about the TGI (HT29 colon) of the same compound?
A: Its TGI is 37.7 µM.

Q: What about the TGI (M14 melanoma) of the same compound?
A: The TGI was 26.9 µM.

Q: What about the TGI (MOLT-4 leukemia) of the same compound?
A: Its TGI is > 100 µM.

Q: What about the TGI (NCI-H23 lung) of the same compound?
A: The TGI was 28.2 µM.

Q: And the TGI (OVCAR-5 ovarian)?
A: The TGI was 43.6 µM.

Q: What about the TGI (RXF 393 renal) of the same compound?
A: Its TGI is 58.7 µM.

Q: What about the TGI (SF-539 CNS) of the same compound?
A: Its TGI is 38 µM.

Q: What about the TGI (UO-31 renal) of the same compound?
A: The TGI was > 100 µM.

Q: What does the source list for COc1ccc(C2CCc3cc4c(cc3/C2=N/OC(C)=O)OCO4)cc1OC (stereo not drawn)?
A: TGI (HT29 colon): > 100 µM; TGI (M14 melanoma): 42.2 µM; TGI (MOLT-4 leukemia): 52 µM; TGI (NCI-H23 lung): 72.6 µM; TGI (OVCAR-5 ovarian): > 100 µM; TGI (RXF 393 renal): 54 µM; TGI (SF-539 CNS): 35.7 µM; TGI (U251 CNS): > 100 µM; TGI (UO-31 renal): 51.1 µM

Q: What does the source list for CCSC(SCC)=C1C(=O)N(c2ccccc2)N=C1C?
A: TGI (A498 renal): 28.8 µM; TGI (HT29 colon): 39.4 µM; TGI (M14 melanoma): 29.7 µM; TGI (MOLT-4 leukemia): 23.4 µM; TGI (NCI-H23 lung): 34.9 µM; TGI (OVCAR-5 ovarian): 29.9 µM; TGI (RXF 393 renal): 5.89 µM; TGI (UO-31 renal): 29 µM

Q: What does the source list for N=C1C=C(N)C(=O)c2[nH]c(=O)ccc21?
A: TGI (A498 renal): 6.52 µM; TGI (HT29 colon): 4.5 µM; TGI (M14 melanoma): 28.7 µM; TGI (NCI-H23 lung): 4.09 µM; TGI (OVCAR-5 ovarian): 4.78 µM; TGI (RXF 393 renal): 3.29 µM; TGI (SF-539 CNS): 3.73 µM; TGI (U251 CNS): 3.6 µM

Q: How did the GI50 (A498 renal) turn out when CSC1=NCC2(S1)c1ccccc1N(C(=O)OC(C)(C)C)C2N1CCCCC1 (stereo not drawn) was run?
A: The GI50 was > 100 µM.

Q: And the TGI (A498 renal)?
A: Its TGI is > 100 µM.

Q: What about the GI50 (HT29 colon) of the same compound?
A: The GI50 was > 100 µM.

Q: What about the TGI (HT29 colon) of the same compound?
A: Its TGI is > 100 µM.

Q: What about the GI50 (M14 melanoma) of the same compound?
A: Its GI50 is > 100 µM.

Q: And the TGI (M14 melanoma)?
A: The TGI was > 100 µM.

Q: What about the GI50 (MOLT-4 leukemia) of the same compound?
A: The GI50 was > 100 µM.

Q: And the TGI (MOLT-4 leukemia)?
A: Its TGI is > 100 µM.

Q: What about the GI50 (OVCAR-5 ovarian) of the same compound?
A: Its GI50 is > 100 µM.

Q: What about the TGI (OVCAR-5 ovarian) of the same compound?
A: The TGI was > 100 µM.

Q: And the GI50 (RXF 393 renal)?
A: The GI50 was 78 µM.

Q: What about the TGI (RXF 393 renal) of the same compound?
A: The TGI was > 100 µM.

Q: And the GI50 (SF-539 CNS)?
A: Its GI50 is > 100 µM.

Q: What about the TGI (SF-539 CNS) of the same compound?
A: The TGI was > 100 µM.

Q: And the GI50 (UO-31 renal)?
A: The GI50 was 78.7 µM.

Q: And the TGI (UO-31 renal)?
A: Its TGI is > 100 µM.
